Test results published in ChEMBL document CHEMBL4825775, “Substituted 2,3-Benzodiazepines Derivatives as Bromodomain BRD4 Inhibitors” (ACS Med Chem Lett, 2021).

target: T1, Bromodomain-containing protein 4 (Homo sapiens, UniProt O60885); experiment: Inhibition of recombinant human His-tagged BRD4 BD1 using biotin-labelled histone H4 acetylated peptide as substrate by TR-FRET assay

Point of comparison: `CNC(=O)N1N=C(c2ccc(N3CCN(C(=O)COCCOCCOCCOCC(=O)Nc4cccc5c4C(=O)N(C4CCC(=O)NC4=O)C5=O)CC3)cc2)c2cc(OC)c(OC)cc2C[C@@H]1C` (stereo partly drawn), IC50 0.0186 µM. Against it:
- CNC(=O)N1N=C(c2ccc(N3CCN(C(=O)CCOCCOCCOCCNc4ccc5c(c4)C(=O)N(C4CCC(=O)NC4=O)C5=O)CC3)cc2)c2cc(OC)c(OC)cc2C[C@@H]1C (stereo partly drawn) — within 1.5-fold, 0.0193 µM
- CNC(=O)N1N=C(c2ccc(N3CCN(C(=O)COCCOCCOCC(=O)Nc4cccc5c4C(=O)N(C4CCC(=O)NC4=O)C5=O)CC3)cc2)c2cc(OC)c(OC)cc2C[C@@H]1C (stereo partly drawn) — within 1.5-fold, 0.0149 µM
- CNC(=O)N1N=C(c2ccc(C(=O)NCCCCNC(=O)COc3cccc4c3C(=O)N(C3CCC(=O)NC3=O)C4=O)cc2)c2cc(OC)c(OC)cc2C[C@@H]1C (stereo partly drawn) — within 1.5-fold, 0.0249 µM

target: T1, Bromodomain-containing protein 4; experiment: Inhibition of recombinant human His-tagged BRD4 BD2 using biotin-labelled histone H4 acetylated peptide as substrate by TR-FRET assay

Point of comparison: `CNC(=O)N1N=C(c2ccc(N3CCN(C(=O)COCCOCCOCC(=O)Nc4cccc5c4C(=O)N(C4CCC(=O)NC4=O)C5=O)CC3)cc2)c2cc(OC)c(OC)cc2C[C@@H]1C` (stereo partly drawn), IC50 0.15 µM. Against it:
- CNC(=O)N1N=C(c2ccc(N3CCN(C(=O)CCOCCOCCOCCNc4ccc5c(c4)C(=O)N(C4CCC(=O)NC4=O)C5=O)CC3)cc2)c2cc(OC)c(OC)cc2C[C@@H]1C (stereo partly drawn) — within 1.5-fold, 0.166 µM
- CNC(=O)N1N=C(c2ccc(N3CCN(C(=O)COCCOCCOCCOCC(=O)Nc4cccc5c4C(=O)N(C4CCC(=O)NC4=O)C5=O)CC3)cc2)c2cc(OC)c(OC)cc2C[C@@H]1C (stereo partly drawn) — 1.9-fold lower, 0.0784 µM
- CNC(=O)N1N=C(c2ccc(C(=O)NCCCCNC(=O)COc3cccc4c3C(=O)N(C3CCC(=O)NC3=O)C4=O)cc2)c2cc(OC)c(OC)cc2C[C@@H]1C (stereo partly drawn) — within 1.5-fold, 0.136 µM
